The target of the assay is Acetyl-CoA carboxylase 2 (Homo sapiens, UniProt O00763). As to the kind of experiment: Spectrophotometric 384 Well Assay: Assay reactions are then carried out in 384-well plates, with hACC2 in an appropriate dilution and at final assay concentrations (f.c.) of 100 mM Tris (pH 7.5), 10 mM trisodium citrate, 25 mM KHCO3, 10 mM MgCl2, 0.5 mg/ml BSA, 3.75 mM reduced L-glutathione, 15 U/ml lactate dehydrogenase, 0.5 mM phosphoenolpyruvate, 15 U/ml pyruvate kinase, compounds at different concentrations at final DMSO concentrations of 1%.The enzymatic reaction is then started by addition of a mixture of NADH, acetyl Coenzyme A (both […].) and ATP (500 uM f.c.). The decrease of the optical density (slope S) is then determined at 25° C. at a wavelength of 340 nm over 15 minutes in a spectrophotometric reader.Each assay microtiter plate contains wells with vehicle instead of compound as controls for the non-inhibited enzyme (100% CTL; HIGH) and wells without acetyl-CoA as controls for non-specific NADH degradation (0% CTL; LOW).
Chain of Acetyl-CoA carboxylase 2 (O00763 whole entry): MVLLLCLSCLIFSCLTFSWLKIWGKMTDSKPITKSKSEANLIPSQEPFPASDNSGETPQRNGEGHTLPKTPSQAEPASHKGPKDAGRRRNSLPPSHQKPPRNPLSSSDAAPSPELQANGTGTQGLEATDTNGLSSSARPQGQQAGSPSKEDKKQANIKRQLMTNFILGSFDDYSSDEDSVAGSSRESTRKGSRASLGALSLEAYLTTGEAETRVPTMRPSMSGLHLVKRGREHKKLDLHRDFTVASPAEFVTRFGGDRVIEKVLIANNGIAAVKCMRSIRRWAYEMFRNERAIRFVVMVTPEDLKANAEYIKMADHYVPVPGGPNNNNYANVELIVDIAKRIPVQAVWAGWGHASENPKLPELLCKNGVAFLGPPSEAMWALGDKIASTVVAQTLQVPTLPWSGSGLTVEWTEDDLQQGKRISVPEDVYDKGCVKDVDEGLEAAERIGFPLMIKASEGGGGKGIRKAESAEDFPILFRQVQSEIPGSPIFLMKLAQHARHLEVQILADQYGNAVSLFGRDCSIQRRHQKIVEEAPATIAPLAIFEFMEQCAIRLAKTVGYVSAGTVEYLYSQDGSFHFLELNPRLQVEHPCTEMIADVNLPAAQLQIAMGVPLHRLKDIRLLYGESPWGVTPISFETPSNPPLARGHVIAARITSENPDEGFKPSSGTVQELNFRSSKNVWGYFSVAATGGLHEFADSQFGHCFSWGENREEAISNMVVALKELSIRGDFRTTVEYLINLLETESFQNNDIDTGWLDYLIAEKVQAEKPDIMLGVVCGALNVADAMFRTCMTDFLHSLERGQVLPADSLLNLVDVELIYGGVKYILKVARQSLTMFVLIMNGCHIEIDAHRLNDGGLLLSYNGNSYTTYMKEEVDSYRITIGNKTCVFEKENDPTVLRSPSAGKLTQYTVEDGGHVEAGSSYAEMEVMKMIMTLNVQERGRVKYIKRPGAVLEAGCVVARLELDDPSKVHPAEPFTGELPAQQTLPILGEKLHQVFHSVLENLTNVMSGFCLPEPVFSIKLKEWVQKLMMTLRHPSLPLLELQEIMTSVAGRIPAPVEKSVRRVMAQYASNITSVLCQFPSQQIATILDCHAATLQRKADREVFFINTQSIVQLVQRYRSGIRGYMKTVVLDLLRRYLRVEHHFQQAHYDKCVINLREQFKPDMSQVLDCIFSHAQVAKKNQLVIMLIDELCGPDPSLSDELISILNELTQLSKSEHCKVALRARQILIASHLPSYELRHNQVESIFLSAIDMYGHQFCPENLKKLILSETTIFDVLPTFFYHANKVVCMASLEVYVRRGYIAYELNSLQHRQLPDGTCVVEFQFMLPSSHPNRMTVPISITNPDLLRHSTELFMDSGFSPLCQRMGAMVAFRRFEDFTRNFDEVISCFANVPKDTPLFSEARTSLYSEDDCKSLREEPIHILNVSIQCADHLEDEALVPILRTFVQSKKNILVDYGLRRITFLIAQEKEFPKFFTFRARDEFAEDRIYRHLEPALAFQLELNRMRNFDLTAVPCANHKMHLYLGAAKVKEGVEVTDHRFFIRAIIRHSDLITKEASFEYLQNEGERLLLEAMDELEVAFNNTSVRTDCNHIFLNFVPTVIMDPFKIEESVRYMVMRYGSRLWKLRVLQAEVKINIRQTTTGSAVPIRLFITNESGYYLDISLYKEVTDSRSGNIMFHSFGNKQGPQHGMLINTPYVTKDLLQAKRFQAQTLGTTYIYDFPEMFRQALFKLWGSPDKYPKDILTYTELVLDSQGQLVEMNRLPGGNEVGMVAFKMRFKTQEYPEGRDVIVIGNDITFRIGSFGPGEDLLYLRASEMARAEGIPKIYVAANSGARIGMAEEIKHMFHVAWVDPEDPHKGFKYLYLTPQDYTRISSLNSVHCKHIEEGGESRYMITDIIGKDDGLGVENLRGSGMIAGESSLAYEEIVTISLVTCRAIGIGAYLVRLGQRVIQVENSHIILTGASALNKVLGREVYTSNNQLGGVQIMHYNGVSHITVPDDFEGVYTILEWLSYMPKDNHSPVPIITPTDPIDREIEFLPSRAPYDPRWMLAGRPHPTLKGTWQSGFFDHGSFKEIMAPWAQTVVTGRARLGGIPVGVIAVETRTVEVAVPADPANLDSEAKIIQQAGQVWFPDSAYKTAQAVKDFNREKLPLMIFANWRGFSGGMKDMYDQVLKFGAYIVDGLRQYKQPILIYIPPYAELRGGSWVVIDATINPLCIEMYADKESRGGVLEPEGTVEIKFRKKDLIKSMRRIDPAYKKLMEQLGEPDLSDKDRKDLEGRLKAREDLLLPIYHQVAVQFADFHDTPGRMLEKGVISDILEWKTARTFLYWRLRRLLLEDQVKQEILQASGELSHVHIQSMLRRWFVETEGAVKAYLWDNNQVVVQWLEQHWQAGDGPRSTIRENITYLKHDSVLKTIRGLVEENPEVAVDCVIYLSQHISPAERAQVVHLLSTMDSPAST

Results on two compounds are retold here after ChEMBL document CHEMBL3886715, “Tetrahydroisoquinoline derivatives, pharmaceutical compositions and uses thereof” (2016).

Structures are written as SMILES.

As for `CC(=O)N[C@@H](C)c1ccc(CN2CCc3cc(OCC4CC4)ccc3C2C(=O)O)cc1` (some centres not stated), the IC50 was determined as 0.806 µM.

`C[C@H](NC(=O)N(C)C)c1ccc(CN2Cc3ccc(OCC4CC4)cc3C(F)C2)cc1` (some centres not stated): the IC50 stood at 0.022 µM.
